What was measured:
Assay in all cases: fitness (endpoint OD595 vs no drug) (fraction); higher = more growth
S. aureus DSM 20231 = tested on: S. aureus DSM 20231
Method in brief: (§1)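 Growth medium was TSB, LB Lennox or CY, and plates were kept at 37 °C. Inoculation was at OD595 0.01 in 384-well plates, at 30 µl per well or 55 µl for S. pneumoniae. OD595 was monitored every 30 min for 14 h and background-subtracted using the first reading. Fitness is the optical density on entering stationary phase divided by the robust mean of no-drug controls, with values capped at 1.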

S. aureus Newman = tested on: S. aureus Newman
Method in brief: as §1

S. pneumoniae D39V = tested on: S. pneumoniae D39V
Method in brief: as §1
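Further: OD595 on entry to stationary phase over no-drug wells; at most 1.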

CO/N=C(\C(=O)N[C@@H]1C(=O)N2C(C(=O)O)=C(COC(C)=O)CS[C@H]12)c1csc(N)n1 [Cefotaxime] + CO[C@@]12[C@H](COC(N)=O)C3=C(C(=O)C(C)=C(N)C3=O)N1C[C@@H]1N[C@@H]12 [Mitomycin C]
Details	fitness
S. aureus DSM 20231, first compound 0.039 µg/mL, partner 0.0156 µg/mL	0.581
S. aureus DSM 20231, first compound 0.039 µg/mL, partner 0.0312 µg/mL	0.532
S. aureus DSM 20231, first compound 0.039 µg/mL, partner 0.0625 µg/mL	0.607
S. aureus DSM 20231, first compound 0.078 µg/mL, partner 0.0156 µg/mL	0.581
S. aureus DSM 20231, first compound 0.078 µg/mL, partner 0.0312 µg/mL	0.577
S. aureus DSM 20231, first compound 0.078 µg/mL, partner 0.0625 µg/mL	0.537
S. aureus DSM 20231, first compound 0.156 µg/mL, partner 0.0156 µg/mL	0.538
S. aureus DSM 20231, first compound 0.156 µg/mL, partner 0.0312 µg/mL	0.562
S. aureus DSM 20231, first compound 0.156 µg/mL, partner 0.0625 µg/mL	0.54
S. aureus DSM 20231, first compound 0.312 µg/mL, partner 0.0156 µg/mL	0.483
S. aureus DSM 20231, first compound 0.312 µg/mL, partner 0.0312 µg/mL	0.495
S. aureus DSM 20231, first compound 0.312 µg/mL, partner 0.0625 µg/mL	0.457
S. aureus Newman, first compound 0.078 µg/mL, partner 0.0156 µg/mL	0.577
S. aureus Newman, first compound 0.078 µg/mL, partner 0.0312 µg/mL	0.574
S. aureus Newman, first compound 0.078 µg/mL, partner 0.0625 µg/mL	0.422
S. aureus Newman, first compound 0.156 µg/mL, partner 0.0156 µg/mL	0.48
S. aureus Newman, first compound 0.156 µg/mL, partner 0.0312 µg/mL	0.414
S. aureus Newman, first compound 0.156 µg/mL, partner 0.0625 µg/mL	0.234
S. aureus Newman, first compound 0.312 µg/mL, partner 0.0156 µg/mL	0.313
S. aureus Newman, first compound 0.312 µg/mL, partner 0.0312 µg/mL	0.22
S. aureus Newman, first compound 0.312 µg/mL, partner 0.0625 µg/mL	0.138
S. pneumoniae D39V, first compound 0.0018 µg/mL, partner 0.001075 µg/mL	0.978
S. pneumoniae D39V, first compound 0.0018 µg/mL, partner 0.002 µg/mL	0.789
S. pneumoniae D39V, first compound 0.0018 µg/mL, partner 0.00215 µg/mL	0.949
S. pneumoniae D39V, first compound 0.0018 µg/mL, partner 0.004 µg/mL	0.81
S. pneumoniae D39V, first compound 0.0018 µg/mL, partner 0.0043 µg/mL	0.863
S. pneumoniae D39V, first compound 0.0018 µg/mL, partner 0.008 µg/mL	0.702
S. pneumoniae D39V, first compound 0.0035 µg/mL, partner 0.001075 µg/mL	0.976
S. pneumoniae D39V, first compound 0.0035 µg/mL, partner 0.002 µg/mL	0.781
S. pneumoniae D39V, first compound 0.0035 µg/mL, partner 0.00215 µg/mL	0.922
S. pneumoniae D39V, first compound 0.0035 µg/mL, partner 0.004 µg/mL	0.767
S. pneumoniae D39V, first compound 0.0035 µg/mL, partner 0.0043 µg/mL	0.838
S. pneumoniae D39V, first compound 0.0035 µg/mL, partner 0.008 µg/mL	0.647
S. pneumoniae D39V, first compound 0.007 µg/mL, partner 0.001075 µg/mL	0.895
S. pneumoniae D39V, first compound 0.007 µg/mL, partner 0.002 µg/mL	0.694
S. pneumoniae D39V, first compound 0.007 µg/mL, partner 0.00215 µg/mL	0.834
S. pneumoniae D39V, first compound 0.007 µg/mL, partner 0.004 µg/mL	0.679
S. pneumoniae D39V, first compound 0.007 µg/mL, partner 0.0043 µg/mL	0.802
S. pneumoniae D39V, first compound 0.007 µg/mL, partner 0.008 µg/mL	0.637

fitness, S. aureus Newman, one replicate
Details	first compound 0.625 µg/mL	first compound 1.25 µg/mL	first compound 2.5 µg/mL
partner 0.0156 µg/mL	0.0313	0.0209	0.0581
partner 0.0312 µg/mL	0.025	0.0017	0.0229
partner 0.0625 µg/mL	0.0258	0	0.0272

COc1cccc2c1C(=O)c1c(O)c3c(c(O)c1C2=O)C[C@@](O)(C(=O)CO)C[C@@H]3O[C@H]1C[C@H](N)[C@H](O)[C@H](C)O1 [Doxorubicin] + CO[C@@]12[C@H](COC(N)=O)C3=C(C(=O)C(C)=C(N)C3=O)N1C[C@@H]1N[C@@H]12 [Mitomycin C]
fitness
Details	first compound 0.25 µg/mL	first compound 0.5 µg/mL	first compound 0.625 µg/mL	first compound 1 µg/mL	first compound 1.25 µg/mL	first compound 2.5 µg/mL
S. aureus DSM 20231, partner 0.0156 µg/mL	–	–	0.699	–	0.697	0.668
S. aureus DSM 20231, partner 0.0312 µg/mL	–	–	0.659	–	0.641	0.61
S. aureus DSM 20231, partner 0.0625 µg/mL	–	–	0.52	–	0.496	0.473
S. aureus Newman, partner 0.0156 µg/mL	–	–	0.669	–	0.692	0.672
S. aureus Newman, partner 0.0312 µg/mL	–	–	0.63	–	0.699	0.599
S. aureus Newman, partner 0.0625 µg/mL	–	–	0.531	–	0.507	0.408
S. pneumoniae D39V, partner 0.001075 µg/mL	0.834	0.842	–	0.81	–	–
S. pneumoniae D39V, partner 0.002 µg/mL	0.836	0.822	–	0.696	–	–
S. pneumoniae D39V, partner 0.00215 µg/mL	0.838	0.848	–	0.783	–	–
S. pneumoniae D39V, partner 0.004 µg/mL	0.707	0.664	–	0.632	–	–
S. pneumoniae D39V, partner 0.0043 µg/mL	0.681	0.671	–	0.58	–	–
S. pneumoniae D39V, partner 0.008 µg/mL	0.458	0.435	–	0.404	–	–
